These molecules were tested on HCV 1b-377-neo replicon cells (assay: HCV Replicon assay, HCV 1b-377-neo replicon cells). Details: Hepatitis C virus, Table 2, read-out: Range (EC50 against HCV 1b).
Assay type: cell-based, HCV 1b genotype

`COC(=O)N[C@@H](C(=O)N[C@@H](C)c1ncc(-c2cnc(-c3ccc(-c4cnc([C@@H]5CCCN5C(=O)[C@H](NC(=O)OC)c5ccccc5)[nH]4)cc3)cn2)[nH]1)c1ccccc1` [Example 152j-19, methyl ((1R)-2-((2S)-2-(5-(4-(5-(2-((1S)-1-(((2R)-2-((methoxycarbonyl)amino)-2-phenylace-tyl)amino)eth-yl)-1H-imidazol-5-yl)-2-pyrazinyl)phenyl)-1H-imidazol-2-yl)-1-pyrrolidinyl)-2-oxo-1-phenylethyl)carbamate] and `COC(=O)N[C@@H](C(=O)N[C@@H](C)c1ncc(-c2ccc(-c3cnc(-c4cnc([C@@H]5CCCN5C(=O)[C@H](NC(=O)OC)c5ccccc5)[nH]4)cn3)cc2)[nH]1)c1ccccc1` [Example 152j-28, methyl ((1R)-2-((2S)-2-(5-(5-(4-(2-((1S)-1-(((2R)-2-((methoxycarbonyl)amino)-2-phenylace-tyl)amino)eth-yl)-1H-imidazol-5-yl)phenyl)-2-pyrazinyl)-1H-imidazol-2-yl)-1-pyrrolidinyl)-2-oxo-1-phenylethyl)carbamate] fall in the same range of EC50: 0.001 to 0.999 nM for the first, 0.001 to 0.999 nM for the second.

First: C[C@@H](c1ncc(-c2ccc(-c3ncc(-c4cnc([C@@H]5CCCN5C(=O)[C@@H](c5ccccc5)N(C)C)[nH]4)cn3)cc2)[nH]1)N(C)C(=O)[C@@H](c1ccccc1)N(C)C [Example 152j-20, (2R)-2-(dimethylamino)-N-((1S)-1-(5-(4-(5-(2-((2S)-1-((2R)-2-(dimethylamino)-2-phenylacetyl)-2-pyrrolidinyl)-1H-imidazol-5-yl)-2-pyrimidinyl)phenyl)-1H-imidaozl-2-yl)ethyl)-N-methyl-2-phenylacetamide]
Second: COC(=O)N[C@@H](C(=O)N(C)[C@@H](C)c1ncc(-c2ccc(-c3ncc(-c4cnc([C@@H]5CCCN5C(=O)[C@H](NC(=O)OC)c5ccccc5)[nH]4)cn3)cc2)[nH]1)c1ccccc1 [Example 152j-21, methyl ((1R)-2-((2S)-2-(5-(2-(4-(2-((1S)-1-(((2R)-2-((methoxycarbonyl)amino)-2-phenylacetyl)(methyl)amino)ethyl)-1H-imidazol-5-yl)phenyl)-5-pyrimidinyl)-1H-imidazol-2-yl)-1-pyrrolidinyl)-2-oxo-1-phenylethyl)carbamate]
The EC50 of the first is higher: 1 to 99 nM for the first, 0.001 to 0.999 nM for the second.

`COC(=O)N[C@@H](C(=O)N[C@@H](C)c1ncc(-c2ccc(-c3ccc(-c4cnc([C@@H]5CCCN5C(=O)[C@H](NC(=O)OC)c5ccccc5)[nH]4)cc3)nc2)[nH]1)c1ccccc1` [Example 152j-22, methyl ((1R)-2-((2S)-2-(5-(4-(5-(2-((1S)-1-(((2R)-2-((methoxycarbonyl)amino)-2-phenylace-tyl)amino)eth-yl)-1H-imidazol-5-yl)-2-pyridinyl)phenyl)-1H-imidazol-2-yl)-1-pyrrolidinyl)-2-oxo-1-phenylethyl)carbamate] and `COC(=O)N[C@@H](C(=O)N[C@@H](C)c1ncc(-c2ccc(-c3ccc(-c4cnc([C@H](C)NC(=O)[C@H](NC(=O)OC)c5ccccc5)[nH]4)cn3)cc2)[nH]1)c1ccccc1` [Example 152j-23, methyl ((1R)-2-(((1S)-1-(5-(6-(4-(2-((1S)-1-(((2R)-2-((methoxycarbonyl)amino)-2-phenylace-tyl)amino)eth-yl)-1H-imidazol-5-yl)phenyl)-3-pyridinyl)-1H-imidazol-2-yl)ethyl)amino)-2-oxo-1-phenylethyl)carbamate] fall in the same range of EC50: 0.001 to 0.999 nM for the first, 0.001 to 0.999 nM for the second.

Compared with `C[C@H](NC(=O)[C@@H](c1ccccc1)N(C)C)c1ncc(-c2ccc(-c3ccc(-c4cnc([C@H](C)NC(=O)[C@@H](c5ccccc5)N(C)C)[nH]4)cn3)cc2)[nH]1` [Example 152j-24, (2R)-2-(dimethylamino)-N-((1S)-1-(5-(6-(4-(2-((1S)-1-(((2R)-2-(dimethylamino)-2-phenylace-tyl)amino)eth-yl)-1H-imidazol-5-yl)phenyl)-3-pyridinyl)-1H-imidazol-2-yl)ethyl)-2-phenylacetamide], `COC(=O)N[C@@H](C(=O)N[C@@H](C)c1ncc(-c2ccc(-c3ccc(-c4cnc([C@H](C)NC(=O)[C@H](NC(=O)OC)c5ccccc5)[nH]4)cn3)nc2)[nH]1)c1ccccc1` [Example 153c-7, dimethyl (2,2′-bipyridine-5,5′-diylbis(1H-imidazole-5,2-diyl(1S)-1,1-ethanediylimino((1R)-2-oxo-1-phenyl-2,1-ethanediyl))) biscarbamate] is higher in EC50: 0.001 to 0.999 nM for the first, 1 to 99 nM for the second.

`COC(=O)N[C@@H](C(=O)N(C)[C@@H](C)c1ncc(-c2ccc(-c3ncc(-c4cnc([C@@H]5CCCN5C(=O)[C@@H](c5ccccc5)N5CCCCC5)[nH]4)cn3)cc2)[nH]1)c1ccccc1` [Example 152l-1, methyl ((1R)-2-(methyl((1S)-1-(4-(4-(5-(2-((2S)-1-((2R)-2-phenyl-2-(1-piperidinyl)acetyl)-2-pyrrolidinyl)-1H-imidazol-5-yl)-2-pyrimidinyl)phenyl)-1H-imidazol-2-yl)ethyl)amino)-2-oxo-1-phenylethyl)carbamate] and `COC(=O)N[C@@H](C(=O)N[C@@H](C)c1ncc(-c2ccc(-c3ncc(-c4cnc([C@@H]5CCCN5C(=O)[C@@H](c5ccccc5)N5CCCCC5)[nH]4)cn3)cc2)[nH]1)c1ccccc1` [Example 152l-2, methyl ((1R)-2-oxo-1-phenyl-2-(((1S)-1-(4-(4-(5-(2-((2S)-1-((2R)-2-phenyl-2-(1-piperidinyl)acetyl)-2-pyrrolidinyl)-1H-imidazol-5-yl)-2-pyrimidinyl)phenyl)-1H-imidazol-2-yl)ethyl)amino)ethyl) carbamate] fall in the same range of EC50: 0.001 to 0.999 nM for the first, 0.001 to 0.999 nM for the second.

Compared with `COC(=O)N[C@@H](C(=O)N1CCC[C@H]1c1ncc(-c2ccc(-c3ncc(-c4cnc([C@@H]5CCCN5C(=O)[C@@H](c5ccccc5)N5CCCCC5)[nH]4)cn3)cc2)[nH]1)c1ccccc1` [Example 152l-3, methyl ((1R)-2-oxo-1-phenyl-2-((2S)-2-(4-(4-(5-(2-((2S)-1-((2R)-2-phenyl-2-(1-piperidinyl)acetyl)-2-pyrrolidinyl)-1H-imidazol-5-yl)-2-pyrimidinyl)phenyl)-1H-imidazol-2-yl)-1-pyrrolidinyl)ethyl) carbamate], `COC(=O)N[C@@H](C(=O)N1CCC[C@H]1c1ncc(-c2cnc(-c3ncc(-c4cnc([C@@H]5CCCN5C(=O)[C@H](NC(=O)OC)c5ccccc5)[nH]4)cn3)nc2)[nH]1)c1ccccc1` [Example 153c-4, dimethyl (2,2′-bipyrimidine-5,5′-diylbis(1H-imidazole-5,2-diyl(2S)-2,1-pyrrolidinediyl((1R)-2-oxo-1-phenyl-2,1-ethanediyl))) biscarbamate] is higher in EC50: 0.001 to 0.999 nM for the first, 1000 to 10000 nM for the second.

`CN(C)[C@@H](C(=O)N1CCC[C@H]1c1ncc(-c2ccc(-c3ccc(-c4cnc([C@@H]5CCCN5C(=O)[C@@H](c5ccccc5)N(C)C)[nH]4)nn3)nn2)[nH]1)c1ccccc1` [Example 153c-1, (1R,1′R)-2,2′-(3,3′-bipyridazine-6,6′-diylbis(1H-imidazole-5,2-diyl(2S)-2,1-pyrrolidinediyl))bis(N, N-dimethyl-2-oxo-1-phenylethanamine)] and `CN(C)[C@@H](C(=O)N1CCC[C@H]1c1ncc(-c2cnc(-c3cnc(-c4cnc([C@@H]5CCCN5C(=O)[C@@H](c5ccccc5)N(C)C)[nH]4)cn3)cn2)[nH]1)c1ccccc1` [Example 153c-5, (1R,1′R)-2,2′-(2,2′-bipyrazine-5,5′-diylbis(1H-imidazole-5,2-diyl(2S)-2,1-pyrrolidinediyl))bis(N, N-dimethyl-2-oxo-1-phenylethanamine)] fall in the same range of EC50: 1 to 99 nM for the first, 1 to 99 nM for the second.

`COC(=O)N[C@@H](C(=O)N1CCC[C@H]1c1ncc(-c2ccc(-c3ccc(-c4cnc([C@@H]5CCCN5C(=O)[C@H](NC(=O)OC)c5ccccc5)[nH]4)nn3)nn2)[nH]1)c1ccccc1` [Example 153c-2, dimethyl (3,3′-bipyridazine-6,6′-diylbis(1H-imidazole-5,2-diyl(2S)-2,1-pyrrolidinediyl((1R)-2-oxo-1-phenyl-2,1-ethanediyl))) biscarbamate] and `COC(=O)N[C@@H](C(=O)N1CCC[C@H]1c1ncc(-c2cnc(-c3cnc(-c4cnc([C@@H]5CCCN5C(=O)[C@H](NC(=O)OC)c5ccccc5)[nH]4)cn3)cn2)[nH]1)c1ccccc1` [Example 153c-6, dimethyl (2,2′-bipyrazine-5,5′-diylbis(1H-imidazole-5,2-diyl(2S)-2,1-pyrrolidinediyl((1R)-2-oxo-1-phenyl-2,1-ethanediyl))) biscarbamate] fall in the same range of EC50: 1 to 99 nM for the first, 1 to 99 nM for the second.

Compared with `CN(C)[C@@H](C(=O)N1CCC[C@H]1c1ncc(-c2cnc(-c3ncc(-c4cnc([C@@H]5CCCN5C(=O)[C@@H](c5ccccc5)N(C)C)[nH]4)cn3)nc2)[nH]1)c1ccccc1` [Example 153c-3, (1R,1′R)-2,2′-(2,2′-bipyrimidine-5,5′-diylbis(1H-imidazole-5,2-diyl(2S)-2,1-pyrrolidinediyl))bis(N, N-dimethyl-2-oxo-1-phenylethanamine)], `COC(=O)N[C@@H](C)C(=O)N1CCC[C@H]1c1nc(-c2cnc(-c3ccc(-c4cnc([C@@H]5CCCN5C(=O)[C@H](C)NC(=O)OC)[nH]4)c(F)c3)nc2)c[nH]1` [Example D67, methyl ((1S)-2-((2S)-2-(5-(2-fluoro-4-(5-(2-((2S)-1-(N-(methoxycarbonyl)-L-alanyl)-2-pyrrolidinyl)-1H-imidazol-5-yl)-2-pyrimidinyl)phenyl)-1H-imidazol-2-yl)-1-pyrrolidinyl)-1-methyl-2-oxoethyl)carbamate] is lower in EC50: 1000 to 10000 nM for the first, 0.001 to 0.999 nM for the second.

Work on `COC(=O)N[C@H](C(=O)N1CCC[C@H]1c1nc(-c2cnc(-c3ccc(-c4cnc([C@@H]5CCCN5C(=O)[C@@H](NC(=O)OC)C(C)C)[nH]4)c(F)c3)nc2)c[nH]1)C(C)C` [Example D68, methyl ((1S)-1-(((2S)-2-(5-(2-fluoro-4-(5-(2-((2S)-1-((2S)-2-((methoxycarbonyl)amino)-3-methylbutanoyl)-2-pyrrolidinyl)-1H-imidazol-5-yl)-2-pyrimidinyl)phenyl)-1H-imidazol-2-yl)-1-pyrrolidinyl)carbonyl)-2-methylpropyl) carbamate] yielded an EC50 of 0.001 to 0.999 nM.

— patent US7745636B2, “Hepatitis C virus inhibitors” (Bristol-Myers Squibb Company, priority 2006, dated 2010)
